Laboratory results from PubChem BioAssay AID256 (DTP/NCI, 2004).
Where “and” joins values, the source holds several entries; their conditions need not be identical. Equal values may be shown once. Toxic doses and inconclusive results are not listed. How the source made its calls: active means survival T/C of 150% or more; inactive means T/C below 125% in these data.

Tested on: CD2F1 mice, L1210 leukemia ip, survival T/C
Experiment: NCI In Vivo Anticancer Drug Screen. Data for tumor model L1210 Leukemia (intraperitoneal) in CD2F1 (CDF1) mice
Settings: higher = longer survival
In short: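 Tumor-bearing mice (transplanted tumor) were split into treated and vehicle control groups, and the measured endpoint of each treated group was divided by that of its vehicle controls.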

[1] = endpoint: mean survival time, dose: 100.0 mg/kg/injection, schedule: Q01DX009 (ip), vehicle: saline with Tween-80
[2] = endpoint: mean survival time, dose: 200.0 mg/kg/injection, schedule: Q01DX009 (ip), vehicle: saline with Tween-80
[3] = endpoint: mean survival time, dose: 400.0 mg/kg/injection, schedule: Q01DX009 (ip), vehicle: saline with Tween-80
[4] = endpoint: mean survival time, dose: 100.0 mg/kg/injection, schedule: Q04DX003 (ip), vehicle: saline with Tween-80
[5] = endpoint: mean survival time, dose: 200.0 mg/kg/injection, schedule: Q04DX003 (ip), vehicle: saline with Tween-80
[6] = endpoint: mean survival time, dose: 400.0 mg/kg/injection, schedule: Q04DX003 (ip), vehicle: saline with Tween-80
[7] = endpoint: mean survival time, dose: 50.0 mg/kg/injection, schedule: Q01DX009 (ip), vehicle: saline with Tween-80

Measured: T/C

CN(C)C=Nc1ccc(Cl)c(Cl)c1
inactive: endpoint: mean survival time, dose: 25.0 mg/kg/injection, schedule: Q04DX003 (ip), vehicle: saline 98 % of control | endpoint: mean survival time, dose: 50.0 mg/kg/injection, schedule: Q04DX003 (ip), vehicle: saline 92 % of control

Cc1o[nH]c(=O)c1C
inactive: [1] 96 % of control | [2] 98 % of control | [3] 98 % of control

COc1ccc(OC)cc1
inactive: endpoint: mean survival time, dose: 100.0 mg/kg/injection, schedule: Q01DX001 (ip), vehicle: other 103 % of control | endpoint: mean survival time, dose: 200.0 mg/kg/injection, schedule: Q01DX001 (ip), vehicle: other 94 % of control | endpoint: mean survival time, dose: 400.0 mg/kg/injection, schedule: Q01DX001 (ip), vehicle: other 101 % of control

O=NN(CCCl)C(=O)Oc1ccc(OC(=O)N(CCCl)N=O)cc1
inactive: endpoint: median survival time, dose: 3.12 mg/kg/injection, schedule: Q01DX009 (ip), vehicle: Klucel (hydroxypropylcellulose) (HPC) 104 % of control | endpoint: median survival time, dose: 6.25 mg/kg/injection, schedule: Q01DX009 (ip), vehicle: Klucel (hydroxypropylcellulose) (HPC) 114 % of control | endpoint: median survival time, dose: 12.5 mg/kg/injection, schedule: Q01DX009 (ip), vehicle: Klucel (hydroxypropylcellulose) (HPC) 118 % of control | endpoint: median survival time, dose: 25.0 mg/kg/injection, schedule: Q01DX009 (ip), vehicle: Klucel (hydroxypropylcellulose) (HPC) 113 % of control | endpoint: median survival time, dose: 50.0 mg/kg/injection, schedule: Q01DX009 (ip), vehicle: Klucel (hydroxypropylcellulose) (HPC) 93 % of control

COC(=O)N/N=C/Cc1ccccc1
inactive: [1] 93 % of control

CCOCc1cc([N+](=O)[O-])cc([N+](=O)[O-])c1O
inactive: endpoint: mean survival time, dose: 12.5 mg/kg/injection, schedule: Q04DX003 (ip), vehicle: saline with Tween-80 98 % of control | endpoint: mean survival time, dose: 25.0 mg/kg/injection, schedule: Q04DX003 (ip), vehicle: saline with Tween-80 98 % of control | endpoint: mean survival time, dose: 50.0 mg/kg/injection, schedule: Q04DX003 (ip), vehicle: saline with Tween-80 100 % of control

CNc1ccc(O)cc1
inactive: endpoint: mean survival time, dose: 5.0 mg/kg/injection, schedule: Q01DX009 (ip), vehicle: saline sonified 101 % of control | endpoint: mean survival time, dose: 5.0 mg/kg/injection, schedule: Q04DX003 (ip), vehicle: saline 91 % of control | endpoint: mean survival time, dose: 10.0 mg/kg/injection, schedule: Q01DX009 (ip), vehicle: saline sonified 103 % of control | endpoint: mean survival time, dose: 10.0 mg/kg/injection, schedule: Q04DX003 (ip), vehicle: saline 97 % of control | endpoint: mean survival time, dose: 20.0 mg/kg/injection, schedule: Q01DX009 (ip), vehicle: saline sonified 104 % of control | endpoint: mean survival time, dose: 20.0 mg/kg/injection, schedule: Q04DX003 (ip), vehicle: saline 101 % of control

O=[N+]([O-])C1C2C=CC(C2)C1c1ccccc1 (stereo not drawn)
inactive: [1] 102 % of control | [4] 98 % of control | [2] 95 % of control | [5] 102 % of control | [3] 98 % of control | [6] 102 % of control

O=C(N/N=C/c1ccccc1O)c1ccccc1O
inactive: [1] 93 % of control | [2] 95 % of control | [3] 93 % of control

CCCCCCCCN1C(=O)CCC1=O
inactive: endpoint: mean survival time, dose: 100.0 mg/kg/injection, schedule: Q04DX002 (ip), vehicle: saline with Tween-80 103 % of control | endpoint: mean survival time, dose: 200.0 mg/kg/injection, schedule: Q04DX002 (ip), vehicle: saline with Tween-80 91 % of control

CCN(Cc1ccccc1)c1ccc(SC#N)cc1
inactive: endpoint: mean survival time, dose: 100.0 mg/kg/injection, schedule: Q01DX001 (ip), vehicle: saline 100 % of control | endpoint: mean survival time, dose: 200.0 mg/kg/injection, schedule: Q01DX001 (ip), vehicle: saline 100 % of control | endpoint: mean survival time, dose: 400.0 mg/kg/injection, schedule: Q01DX001 (ip), vehicle: saline 93 % of control

O=NN(CCCl)C(=O)Nc1ccc2[nH]c3ccccc3c2c1
inactive: endpoint: mean survival time, dose: 25.0 mg/kg/injection, schedule: Q01DX009 (ip), vehicle: Klucel (hydroxypropylcellulose) (HPC) 101 % of control | endpoint: mean survival time, dose: 50.0 mg/kg/injection, schedule: Q01DX009 (ip), vehicle: Klucel (hydroxypropylcellulose) (HPC) 116 % of control | endpoint: mean survival time, dose: 100.0 mg/kg/injection, schedule: Q01DX009 (ip), vehicle: Klucel (hydroxypropylcellulose) (HPC) 118 % of control | endpoint: mean survival time, dose: 177.0 mg/kg/injection, schedule: Q01DX009 (ip), vehicle: saline with Tween-80 91 % of control | endpoint: mean survival time, dose: 200.0 mg/kg/injection, schedule: Q01DX009 (ip), vehicle: Klucel (hydroxypropylcellulose) (HPC) 123 % of control | [3] 104 % of control

Cc1ccccc1SCCC(=O)O
inactive: endpoint: mean survival time, dose: 12.5 mg/kg/injection, schedule: Q01DX009 (ip), vehicle: saline with Tween-80 101 % of control | endpoint: mean survival time, dose: 25.0 mg/kg/injection, schedule: Q01DX009 (ip), vehicle: saline with Tween-80 102 % of control | [7] 101 % of control | [1] 97 % of control

COC(=O)C1OC(C)(C)OC1C(=O)OC (stereo not drawn)
inactive: endpoint: mean survival time, dose: 1.56 mg/kg/injection, schedule: Q01DX001 (ip), vehicle: saline with Tween-80 103 % of control | endpoint: mean survival time, dose: 3.12 mg/kg/injection, schedule: Q01DX001 (ip), vehicle: saline with Tween-80 100 % of control | endpoint: mean survival time, dose: 6.25 mg/kg/injection, schedule: Q01DX001 (ip), vehicle: saline with Tween-80 95 % of control

O=C(CNC(=O)Nc1ccc(F)cc1)N/N=C/c1ccc(Cl)c(Cl)c1
inactive: [7] 96 % of control | [1] 96 % of control | [2] 100 % of control

CC(=[C-]C(=O)O)C(=O)O.[NH-]C1CCCCC1[NH-].[Pt]
inactive: endpoint: median survival time, dose: 6.25 mg/kg/injection, schedule: Q04DX003 (ip), vehicle: saline 100 % of control | endpoint: median survival time, dose: 12.5 mg/kg/injection, schedule: Q04DX003 (ip), vehicle: saline 100 % of control | endpoint: median survival time, dose: 25.0 mg/kg/injection, schedule: Q04DX003 (ip), vehicle: saline 102 % of control | endpoint: median survival time, dose: 50.0 mg/kg/injection, schedule: Q04DX003 (ip), vehicle: saline 108 % of control | endpoint: median survival time, dose: 100.0 mg/kg/injection, schedule: Q04DX003 (ip), vehicle: saline 112 % of control

O=C(NCCCC1C2CCC(C2)C1CNC(=O)Nc1cccc(Cl)c1)Nc1cccc(Cl)c1 (stereo not drawn)
inactive: [1] 93 % of control | [2] 93 % of control | [3] 89 % of control

CC(CCOP(=O)(N(CCCl)CCCl)N1CC1)OCc1ccccc1 (stereo not drawn)
active: endpoint: mean survival time, dose: 50.0 mg/kg/injection, schedule: Q01DX001 (ip), vehicle: other 153 % of control
inactive: endpoint: mean survival time, dose: 22.0 mg/kg/injection, schedule: Q01DX001 (ip), vehicle: other 108 % of control | endpoint: mean survival time, dose: 33.0 mg/kg/injection, schedule: Q01DX001 (ip), vehicle: other 111 % of control

N#CSCc1ccc(Cl)c(CSC#N)c1
inactive: endpoint: mean survival time, dose: 18.8 mg/kg/injection, schedule: Q01DX009 (ip), vehicle: saline 108 % of control | endpoint: mean survival time, dose: 18.8 mg/kg/injection, schedule: Q04DX003 (ip), vehicle: saline 103 % of control | endpoint: mean survival time, dose: 37.5 mg/kg/injection, schedule: Q01DX009 (ip), vehicle: saline 108 % of control | endpoint: mean survival time, dose: 37.5 mg/kg/injection, schedule: Q04DX003 (ip), vehicle: saline 105 % of control | endpoint: mean survival time, dose: 75.0 mg/kg/injection, schedule: Q01DX001 (ip), vehicle: saline 96 % of control | endpoint: mean survival time, dose: 75.0 mg/kg/injection, schedule: Q01DX009 (ip), vehicle: saline 108 % of control | endpoint: mean survival time, dose: 75.0 mg/kg/injection, schedule: Q04DX003 (ip), vehicle: saline 109 % of control

FC(F)(F)c1nc2nccnc2[nH]1
inactive: endpoint: mean survival time, dose: 50.0 mg/kg/injection, schedule: Q01DX009 (ip), vehicle: saline 95 % of control | endpoint: mean survival time, dose: 100.0 mg/kg/injection, schedule: Q01DX009 (ip), vehicle: saline 91 % of control | endpoint: mean survival time, dose: 200.0 mg/kg/injection, schedule: Q01DX009 (ip), vehicle: saline 93 % of control

Nc1ncnc2c1ncn2C(C=O)OC(C=O)CO (stereo not drawn)
inactive: endpoint: mean survival time, dose: 35.0 mg/kg/injection, schedule: Q01DX001 (ip), vehicle: saline 117 % of control

Cc1noc(/N=C/c2cccc(Cl)c2)c1C
inactive: endpoint: mean survival time, dose: 100.0 mg/kg/injection, schedule: Q04DX003 (ip), vehicle: saline 96 % of control | endpoint: mean survival time, dose: 200.0 mg/kg/injection, schedule: Q04DX003 (ip), vehicle: saline 101 % of control | endpoint: mean survival time, dose: 400.0 mg/kg/injection, schedule: Q04DX003 (ip), vehicle: saline 101 % of control

O=C1CCc2cccc(O)c21
inactive: [1] 98 % of control | [4] 101 % of control | [2] 93 % of control | [5] 97 % of control | [3] 95 % of control | [6] 108 % of control

CN(C)N=Nc1ccccc1C(=O)NCC#N
inactive: endpoint: mean survival time, dose: 18.75 mg/kg/injection, schedule: Q01DX009 (ip), vehicle: Klucel (hydroxypropylcellulose) (HPC) 100 % of control and 103 % of control | endpoint: mean survival time, dose: 37.5 mg/kg/injection, schedule: Q01DX009 (ip), vehicle: Klucel (hydroxypropylcellulose) (HPC) 106 % of control and 107 % of control | endpoint: mean survival time, dose: 75.0 mg/kg/injection, schedule: Q01DX009 (ip), vehicle: Klucel (hydroxypropylcellulose) (HPC) 112 % of control | endpoint: mean survival time, dose: 150.0 mg/kg/injection, schedule: Q01DX009 (ip), vehicle: Klucel (hydroxypropylcellulose) (HPC) 91 % of control
